Experiment [1] deals with PI3Kδ (Homo sapiens, UniProt O00329). The experiment can be described thus: Selectivity profile, single dose 0.5 µM, PI3Kδ. Conditions: remaining enzyme activity; single‐dose duplicate mode at 0.5 μM; read-out: Enzyme % activity (relative to DMSO controls) at 0.5 µM, PI3Kδ. In kind it is biochemical. Here is the method:
(§1) The inhibitory profiles of 5b and 5f were evaluated against selected HDAC isoforms (HDAC1, HDAC3, HDAC4, HDAC8, and HDAC10) and PI3K isoforms (PI3Kδ, PI3Kγ, and PI3Kβ) at a fixed concentration of 0.5 µM (Table 3). […] While we explored the phenyl ring in the linker region to achieve selectivity for the HDAC6 isoform, we still observed HDAC class I inhibition. […] It is important to highlight that PI3Kδ is mainly expressed in hematopoietic system and plays roles in leukocyte signaling, T‐cell activation, and immune cell trafficking. FDA‐approved drug idelalisib is a selective PI3Kδ inhibitor in B‐cell malignancies; however, this drug is also related to disruption of the immune system, which can lead to immune manifestations, such as infections. In addition, while isoform‐selective PI3K inhibitors are well tolerated, pan‐inhibition of PI3K is less expected that compensatory mechanisms by the action of other PI3Ks can take place. Thus, a more balanced profile of PI3K inhibition can lead to an overall lack of toxicity of PI3K inhibitors.

Experiment [2] deals with HDAC1 (Homo sapiens, UniProt Q13547). The experiment can be described thus: Selectivity profile, single dose 0.5 µM, HDAC1. Format: biochemical. The following applies: remaining enzyme activity; single‐dose duplicate mode at 0.5 μM; read-out: Enzyme % activity (relative to DMSO controls) at 0.5 µM, HDAC1. Here is the method: as §1

SMILES strings stand for the structures.

Sequence of HDAC1 (Q13547 whole entry): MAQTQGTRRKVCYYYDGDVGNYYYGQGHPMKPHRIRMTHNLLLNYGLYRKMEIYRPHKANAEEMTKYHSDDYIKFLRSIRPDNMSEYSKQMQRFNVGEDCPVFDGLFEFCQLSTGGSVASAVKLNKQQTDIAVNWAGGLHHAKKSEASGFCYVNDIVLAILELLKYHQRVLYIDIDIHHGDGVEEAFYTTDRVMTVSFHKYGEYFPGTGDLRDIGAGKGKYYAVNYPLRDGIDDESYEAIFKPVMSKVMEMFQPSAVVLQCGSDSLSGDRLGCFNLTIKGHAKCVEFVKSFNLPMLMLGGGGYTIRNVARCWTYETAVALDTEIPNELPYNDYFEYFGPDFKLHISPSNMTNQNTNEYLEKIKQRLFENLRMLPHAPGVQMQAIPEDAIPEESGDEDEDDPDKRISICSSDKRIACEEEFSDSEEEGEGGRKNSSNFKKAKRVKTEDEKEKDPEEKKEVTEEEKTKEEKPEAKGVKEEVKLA
Sequence of PI3Kδ (O00329 whole entry, canonical isoform): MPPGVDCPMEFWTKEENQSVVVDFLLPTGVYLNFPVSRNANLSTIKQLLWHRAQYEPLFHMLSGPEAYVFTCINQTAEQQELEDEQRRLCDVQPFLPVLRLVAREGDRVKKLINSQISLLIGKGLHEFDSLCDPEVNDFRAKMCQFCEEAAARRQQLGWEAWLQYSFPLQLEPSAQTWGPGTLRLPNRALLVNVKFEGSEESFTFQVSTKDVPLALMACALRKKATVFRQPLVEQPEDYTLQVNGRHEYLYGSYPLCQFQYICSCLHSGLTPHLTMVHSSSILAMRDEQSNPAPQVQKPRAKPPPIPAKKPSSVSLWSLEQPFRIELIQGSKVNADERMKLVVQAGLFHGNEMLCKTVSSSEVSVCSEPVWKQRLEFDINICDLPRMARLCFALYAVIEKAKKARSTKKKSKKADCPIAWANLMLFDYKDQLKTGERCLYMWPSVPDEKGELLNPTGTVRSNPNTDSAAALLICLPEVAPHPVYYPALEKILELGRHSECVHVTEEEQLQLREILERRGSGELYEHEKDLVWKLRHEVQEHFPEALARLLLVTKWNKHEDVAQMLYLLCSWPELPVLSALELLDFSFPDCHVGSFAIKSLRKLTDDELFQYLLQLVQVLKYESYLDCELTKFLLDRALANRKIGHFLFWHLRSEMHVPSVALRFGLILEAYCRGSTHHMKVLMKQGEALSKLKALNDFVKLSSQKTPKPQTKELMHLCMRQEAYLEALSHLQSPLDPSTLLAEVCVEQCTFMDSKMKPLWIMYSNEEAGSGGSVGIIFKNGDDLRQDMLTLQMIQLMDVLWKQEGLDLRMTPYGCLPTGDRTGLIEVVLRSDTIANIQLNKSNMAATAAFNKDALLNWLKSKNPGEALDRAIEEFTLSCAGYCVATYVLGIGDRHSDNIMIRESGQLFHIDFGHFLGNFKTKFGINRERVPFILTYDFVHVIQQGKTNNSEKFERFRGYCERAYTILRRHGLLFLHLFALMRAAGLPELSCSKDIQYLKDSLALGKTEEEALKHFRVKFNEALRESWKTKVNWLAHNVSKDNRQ
Sequence of PI3Kδ (P27986 whole entry partner, canonical isoform): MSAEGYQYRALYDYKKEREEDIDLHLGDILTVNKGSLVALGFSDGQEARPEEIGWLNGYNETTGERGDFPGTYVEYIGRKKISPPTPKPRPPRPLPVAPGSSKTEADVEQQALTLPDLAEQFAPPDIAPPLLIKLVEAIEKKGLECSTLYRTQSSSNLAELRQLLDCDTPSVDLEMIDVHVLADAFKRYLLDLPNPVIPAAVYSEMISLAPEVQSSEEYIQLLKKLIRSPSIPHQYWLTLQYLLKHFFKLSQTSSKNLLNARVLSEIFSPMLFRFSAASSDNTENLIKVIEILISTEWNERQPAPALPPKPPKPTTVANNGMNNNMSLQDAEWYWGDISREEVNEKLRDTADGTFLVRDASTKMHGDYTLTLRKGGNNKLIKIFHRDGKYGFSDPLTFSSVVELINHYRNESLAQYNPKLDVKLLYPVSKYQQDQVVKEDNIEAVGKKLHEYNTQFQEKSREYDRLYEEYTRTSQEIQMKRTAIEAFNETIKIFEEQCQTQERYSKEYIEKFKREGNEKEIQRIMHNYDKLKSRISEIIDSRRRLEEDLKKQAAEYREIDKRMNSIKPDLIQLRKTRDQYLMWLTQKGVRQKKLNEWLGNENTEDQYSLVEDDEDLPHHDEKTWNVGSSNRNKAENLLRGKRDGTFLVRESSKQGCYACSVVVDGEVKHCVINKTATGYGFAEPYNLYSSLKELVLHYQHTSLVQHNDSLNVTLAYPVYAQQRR

As to `COc1ccc(-c2nc(NCc3ccc(C(=O)NO)cc3)nc(N3CCOCC3)n2)cn1` [Compound 5f, N‐Hydroxy‐4‐(((4‐(6‐Methoxypyridin‐3‐yl)‐6‐Morpholino‐1,3,5‐Triazin‐2‐yl)Amino)Methyl)Benzamide], the remaining activity at 0.5 µM in experiment [1] was determined as 59.2%; in experiment [2], 35.7%.
Turning to `O=C(NO)c1ccc(CNc2nc(-c3cccc(O)c3)nc(N3CCOCC3)n2)cc1` [Compound 5b, N‐Hydroxy‐4‐(((4‐(3‐Hydroxyphenyl)‐6‐Morpholino‐1,3,5‐Triazin‐2‐yl)Amino)Methyl)Benzamide], the remaining activity at 0.5 µM in experiment [1] was found to be 8.24%; in experiment [2], 35.9%.

Values taken from paper PMC13110364, “Design, Synthesis, and Biological Evaluation of Novel Triazine‐Based Dual Histone Deacetylase/phosphatidylinositol 3‐kinase Inhibitors for Breast Cancer Therapy” (Chemmedchem, 2026).
